Test results from patent publication US5639783A, “Ketone derivatives” (Mitsubishi Chemical Corporation, priority 1991, dated 1997).

How the values were obtained:
[1] = system: microtubule-associated protein; conditions: Brain Research, 526, p. 177 (1990); cited from earlier work
cathepsin B = target: T1, cathepsin B (Bos taurus, UniProt P07688); test: Thiol protease inhibitory activity, cathepsin B (C-6286, Sigma); format: biochemical; conditions: Table 3
T1 construct: purchased Sigma C-6286
Method in brief: (§1)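 Papain and bovine cathepsin B assayed by a published method; cathepsin L purified from rat kidney and assayed in the same manner as cathepsin B. m-Calpain purified from rat brain and assayed by a separate published procedure.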

in vivo = conditions: rat, po
Procedure: The LD50 value of the compound prepared in Example 94 was: >2,000 mg/kg.

m-calpain = target: T2, m-calpain (Rattus norvegicus, UniProt Q07009); test: Thiol protease inhibitory activity, m-calpain purified from rat brain; format: biochemical; conditions: Table 3
T2 construct: m-calpain was purified from rat brain; from tissue; host or cells: rat brain
T2 sequence (Q07009 20-700 limits assumed): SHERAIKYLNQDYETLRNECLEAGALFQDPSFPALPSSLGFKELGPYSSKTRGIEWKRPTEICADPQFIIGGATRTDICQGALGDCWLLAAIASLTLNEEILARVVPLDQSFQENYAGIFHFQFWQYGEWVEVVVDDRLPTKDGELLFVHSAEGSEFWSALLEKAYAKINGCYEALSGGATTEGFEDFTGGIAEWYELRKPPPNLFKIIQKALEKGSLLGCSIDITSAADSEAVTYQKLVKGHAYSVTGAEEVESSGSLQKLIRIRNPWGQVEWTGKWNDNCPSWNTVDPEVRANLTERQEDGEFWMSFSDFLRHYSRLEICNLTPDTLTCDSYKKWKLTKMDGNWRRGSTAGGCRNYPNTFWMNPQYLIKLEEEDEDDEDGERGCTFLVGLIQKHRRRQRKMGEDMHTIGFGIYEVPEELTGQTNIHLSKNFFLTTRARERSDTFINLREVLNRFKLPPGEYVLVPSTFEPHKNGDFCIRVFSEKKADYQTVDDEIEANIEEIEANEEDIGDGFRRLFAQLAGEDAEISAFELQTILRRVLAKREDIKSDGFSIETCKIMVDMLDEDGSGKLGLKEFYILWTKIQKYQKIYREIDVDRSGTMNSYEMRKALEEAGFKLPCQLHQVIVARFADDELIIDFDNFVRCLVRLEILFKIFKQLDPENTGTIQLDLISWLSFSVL
T2 sequence (Q64537 1-270 partner): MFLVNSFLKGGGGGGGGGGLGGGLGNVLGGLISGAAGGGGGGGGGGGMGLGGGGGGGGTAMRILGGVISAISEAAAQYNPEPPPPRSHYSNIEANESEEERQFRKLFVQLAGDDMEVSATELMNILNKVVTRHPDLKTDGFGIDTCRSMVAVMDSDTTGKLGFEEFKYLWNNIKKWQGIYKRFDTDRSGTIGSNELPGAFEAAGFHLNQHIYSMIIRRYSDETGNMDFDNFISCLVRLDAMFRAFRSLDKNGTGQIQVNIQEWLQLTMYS
Method in brief: as §1

cathepsin L = target: T3, cathepsin L (Rattus norvegicus, UniProt P07154); test: Thiol protease inhibitory activity, cathepsin L purified from rat kidney; format: biochemical; conditions: Table 3
T3 construct: Cathepsin L was purified from rat kidney; from tissue; host or cells: rat kidney
T3 sequence (P07154 114-334): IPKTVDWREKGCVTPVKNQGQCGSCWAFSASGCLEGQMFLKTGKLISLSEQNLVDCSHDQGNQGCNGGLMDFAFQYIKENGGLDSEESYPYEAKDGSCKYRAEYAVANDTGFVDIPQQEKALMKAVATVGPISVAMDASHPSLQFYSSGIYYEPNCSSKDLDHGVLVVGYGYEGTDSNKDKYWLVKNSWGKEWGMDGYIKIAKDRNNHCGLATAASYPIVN
Method in brief: as §1

papain = target: T4, papain (Carica papaya, UniProt P00784); test: Thiol protease inhibitory activity, papain (P-3125, Sigma); format: biochemical
T4 sequence (P00784 134-345): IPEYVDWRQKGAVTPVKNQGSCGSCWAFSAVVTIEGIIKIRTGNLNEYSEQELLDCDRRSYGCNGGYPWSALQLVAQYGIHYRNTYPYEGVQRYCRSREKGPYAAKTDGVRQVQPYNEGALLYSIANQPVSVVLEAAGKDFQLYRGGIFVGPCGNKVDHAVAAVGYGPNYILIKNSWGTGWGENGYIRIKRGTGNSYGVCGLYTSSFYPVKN
Method in brief: as §1

[2] = system: cardiac infarction animal models; conditions: Arzneimittel Forschung/Drug Research, 36 (1986); cited from earlier work
aggregation of platelet = conditions: Thrombosis Research, 57, p. 847 (1990); cited from earlier work
[3] = system: experimental muscular dystrophy hamster; conditions: Journal of Pharmacobio dynamics, 10, 678 (1987); cited from earlier work
[4] = system: axon in brain trauma models of rat; conditions: Journal of Neurosurgery, 65, p. 92 (1986); cited from earlier work

In the case of `CC(C)CCNC(=O)[C@H](CC(C)C)NC(=O)[C@H]1O[C@@H]1C(=O)O` [E-64-C], the “degradation of microtubule-associated protein after brain ischemia” value [1] is listed as “inhibits the degradation of microtubule-associated protein after the brain ischemia”.
In the case of `CCCC[C@H](NC(=O)[C@H](CC(C)C)NC(=O)c1cc(=O)c2ccccc2o1)C(=O)CSCc1ccco1` [94 (No. 188), (s)-1-furfurylthio-3-[(s)-4-methyl-2-(4-oxo-4H-1-benzopyranylcarbonylamino)valerylamino]-2-heptanone], the IC50 (cathepsin B) is reported as 1100 nM, the LD50 at 168 h (in vivo) is reported as > 2000 mg/kg and the IC50 (m-calpain) is reported as 9200 nM. It also gave an IC50 (cathepsin L) of 24 nM and an IC50 (papain) of 770 nM.
For `CCOC(=O)[C@@H]1O[C@H]1C(=O)NC(CC(C)C)C(=O)N1CCN(Cc2ccc(OC)c(OC)c2OC)CC1.CCOC(=O)[C@@H]1O[C@H]1C(=O)NC(CC(C)C)C(=O)N1CCN(Cc2ccc(OC)c(OC)c2OC)CC1.O=S(=O)(O)O` (stereo partly shown) [NCO-700], the “effect on cardiac infarction” value [2] is listed as “effective on cardiac infarction”.
For `CCOC(=O)[C@H]1O[C@@H]1C(=O)N[C@@H](CC(C)C)C(=O)NCCC(C)C` [E-64-d], the “aggregation of platelet caused by thrombin” value (aggregation of platelet) is given as “suppressed aggregation of platelet caused by thrombin” and the “effect in experimental muscular dystrophy hamster” value [3] is given as “life-prolonging effect”.
In the case of `CC(=O)N[C@@H](CC(C)C)C(=O)N[C@@H](CC(C)C)C(=O)N[C@H](C=O)CCCNC(=N)N` [leupeptin], the “protection of axon in brain trauma models” value [4] is given as “can protect axon”.
